Experimental data from patent US20140286906A1, “USE OF IGF-1 IN THE MODULATION OF TREG CELL ACTIVITY AND THE TREATMENT AND PREVENTION OF AUTOIMMUNE DISORDERS OR DISEASES” (priority 2011, published 2014).

Key:
[1] = system: FOXP3 positive cells (CD25+ splenic cells); assay: Foxp3 and Ki67 flow cytometric analysis of Treg proliferation; format: cell-based, murine
Procedure: To determine the effect of IGF-1 in the regulatory subset in vitro (cf. FIG. 4) the number of FOXP3 positive cells is determined by flow cytometric analysis. To analyze other subsets, like the proinflammatory Th1 and Th17 subsets, a similar approach is used but the number of interferon-gamma (Th1) and IL-17 (Th17) positive cells is determined. Additionally, to evaluate the number of proliferating cells at a given moment cells are stained using the intracellular marker Ki67, which is expressed only in cycling cells. The combination of a specific lineage marker (e.g., Foxp3, IFN-g, IL-17) with Ki67 allows for the determination at a given moment of the cells belonging to a certain subset and their proliferative status.
In animal experiments, the population is isolated normally from murine spleen (but also could be isolated from other tissues, like for example but not restricted to bone marrow, adipose tissue, cord blood derived mononuclear cell, thymus, or peripheral blood) and is sorted using different markers (e.g., CD4 and CD25). This population is defined as CD4+CD25+ and includes the regulatory cells. This population is then treated in the above-mentioned medium in the presence of IGF-1. After several days of culture part of the cells are counted, fixed, permeabilized and analyzed by flow cytometry using an anti-FOXP3 antibody in combination with the same extracellular markers (CD4 and CD25). This allows for the determination of the absolute number of FOXP3 positive cells present in the culture.
To further define the proliferative effects of IGF-1, FACS-sorted CD25+ splenic cells (>98% purity) after two days in culture with recombinant IGF-1 were fixed, permeabilized and stained with antibodies against FOXP3 and Ki67. Foxp3 is a transcription factor that orchestrates the cellular and molecular programs involved in T regulatory function. Ki67 is a nuclear antigen present in proliferating cells. […] After three days of culture the number of FOXP3 positive cells was increased four-fold and the number of regulatory T cells proliferating approximately six-fold.

CD4+CD25+ splenic cells = assay: flow cytometry of activation and homing markers on CD4+CD25+ splenic cells; format: cell-based, murine; conditions: Deguelin 1 μM; Ly-294,002 and PD.98,059 10 μM (FIG. 10)
From the text: The expression of certain markers on the surface of the cell is correlated with the degree of activation of the cells and also controls their trafficking and localization and consequently the compartmentalization of the immune responses. This is again measured using flow cytometric methods. For example, cells expressing high levels of CD62L preferentially migrate to secondary lymphoid tissues. However, as these cells enter the periphery (for example when they travel to affected tissues during an autoimmune process) they rapidly acquire an activated phenotype and express higher levels of CD44. Thus upregulation of CD44 is associated with a higher proliferation rate. […] The importance of this observation comes from the fact that in order to exert their suppressive properties, Tregs need to migrate to the affected tissues first. Therefore, IGF-1 not only induces activation of proliferation but also promotes their correct localization.
Finally, the inventors analyzed the ability of IGF-1 to alter the homing properties of the regulatory T cell subset. In 2003, Fisson et al. defined two distinct population of regulatory T cells in homeostatic conditions. In the steady state, some Tregs remain quiescent for long periods of time, whereas the other Treg population divides extensively and express multiple activation markers. […] This pattern of change is also consistent with a more activated phenotype. On one hand, CD44^hiCD62L^lo Treg populations, but not their CD44^loCD62L^hi counterparts, constantly incorporate BrdU, a synthetic analog of thymidine, into newly synthesized DNA in lymphoid tissues (Matsushima and Takashima, 2010). On the other hand, higher levels of CD62L have been associated with a higher capacity of Tregs to migrate to the lymph nodes, while lower levels allows them to migrate to sites of inflammation (Fisson et al., 2003; Bromley et al., 2008). Thus, T regulatory cells expressing lower levels of CD62L would have a higher inflammation-seeking capacity, which has been associated with higher suppressive potential in various inflammation models (Huehn et al., 2005). […] One, IGF-1 is able to activate a complex pathway resulting in Treg activation leading to proliferation and to selective homing and migration to the sites of inflammation. The second conclusion comes from the observation that sequential migration from blood to the target tissue and then to draining lymph nodes is required for nTreg to differentiate and execute fully their suppressive function, by inhibiting dendritic cells in the peripheral tissue and T effector cell responses in dLN and periphery (Zhang et al., 2009). Thus, IGF-1 treatment not only results in higher numbers of T regulatory cells but also in altering the trafficking of these cells to achieve a higher suppressive effect. […]

## COc1cc2c(cc1OC)[C@@H]1C(=O)c3ccc4c(c3O[C@@H]1CO2)C=CC(C)(C)O4 [Deguelin, reference compound]
[1]; inhibitor 1 μM
  effect of inhibitor on IGF-1 effect on Treg proliferation: partially blocked
CD4+CD25+ splenic cells
  sensitivity of IGF-1 induced CD62L and CD44 changes to pathway inhibitor: more sensitive

## O=c1cc(N2CCOCC2)oc2c(-c3ccccc3)cccc12 [Ly-294,002, reference compound]
[1]; inhibitor 10 μM
  effect of inhibitor on IGF-1 effect on Treg proliferation: sensitive

## COc1cccc(-c2cc(=O)c3ccccc3o2)c1N [PD.98,059, reference compound]
[1]; inhibitor 10 μM
  effect of inhibitor on IGF-1 effect on Treg proliferation: partially blocked
